Like-named read-outs stand apart in the source and are kept apart here. Bounds are passed on as bounds.

Data set [1] relates to human neuroblastoma MC-65 cells. The experiment in a line: cells. The conditions noted are these: for EC100 / minimal effective concentration: Homo sapiens, MC65, 48 h; for EC100: read-out: EC100 (maximum effective concentration); for minimal effective concentration: read-out: TH (threshold protective concentration); for CC2 (cytotoxic concentration): MC-65, cultured without tetracycline; for CC2 (cytotoxic concentration) / CC1 (cytotoxic concentration): viability below 80%; for CC1 (cytotoxic concentration): MC-65, presence of TET. The method, then: In this assay, human neuroblastoma cells (MC-65 cells) are genetically engineered to conditionally express amyloid β peptide (Aβ). The Aβ production is suppressed by tetracycline (TET+) presence in culture medium, and its production is activated when TET is withdrawn (TET−). The activation of Aβ production results in cell death “MC-65 suicide”.
Protective effect of compounds against edogenously produced amyloid beta (Aβ) was assessed in human neuroblastoma MC-65 cells. MC-65 cells have been stably transformed to conditionally express high levels of a partial amyloid precursor (AP) fusion protein (Bryce Sopher et al., Brain Res Mol Brain Res. 1994, 207-17.). This protein is further proteolitically processed in the cells to form a set of AP-derived Aβ peptides. […] Activity of the promoter is tightly regulated by the presence of the antibiotic tetracycline (TET) in the culture medium. In the presence of TET (TET+), the promoter is in the basal state and no amyloid beta peptide is synthesized. In the absence of TET (TET−) the promoter is in induced state, resulting in the accumulation of Aβ peptides in the cells, degenerative changes in cell morphology and decreased survival.
Transfected human neuroblastoma cells (MC-65) were cultured in DMEM (ATCC) supplemented with non-essential amino acids and 10% FBS (VWR) in the presence of TET (1 μg/mL). For the experiment, the cells were plated at 35,000 cells/cm^2 and grown for 1 day in the regular culture media prior to compound addition. On the day of the assay, culture supernatant was removed from the wells and cells were thoroughly washed once with the compound incubation matrix containing no FBS and no TET. MC-65 cells were treated with a test compound at pre-determined range of concentrations in a basal medium containing no FBS and in the absence or presence of 1 μg/mL TET for approximately 48 h. Cell viability was then measured using the MTT method.
For data analysis, cell viabilities relative to the control not treated with a test compound and maintained in the presence of TET were plotted against the compound concentration. […] Cytotoxicity of the test compound was assessed in the cells maintained in the presence of TET.

Data set [2] has as its system SH-SY5Y human neuroblastoma cells. The settings on record: for CC2 (cytotoxic concentration): H2O2-treated cells, viability below 80%; for CC1 (cytotoxic concentration): absence of H2O2, viability below 80%. An excerpt:
Hydrogen peroxide (H2O2) is a major ROS (reactive oxidative species), which causes oxidative stress, and can induce apoptosis in many different cell types. One of the CNS drug design strategies is to use compounds with antioxidant properties as a possible treatment of both acute and chronic neurodegenerative diseases (Kang et al. Bioorganic & Medicinal Chemistry Letters, 2004, 14, 2261-2264). This involves testing the compounds of this invention for their protective effect against oxidative stress-induced cell death in SH-SY5Y human neuroblastoma cells. SH-SY5Y human neuroblastoma cells were cultured in DMEM (ATCC)/F12 (Cellgro) with 10% FBS. The cells were plated at 30,000 cells/cm^2 and grown for 1 day in the regular culture media prior to compound addition. Cells were routinely treated with the test compound, at a pre-determined range of concentrations, in the presence or absence of 50 μM hydrogen peroxide in a basal medium containing no FBS for 16-22 h. Cell viability was then measured using the routine MTT method (Mosmann, T., Rapid Colorimetric Assay for Cellular Growth and Survival: Application to Proliferation and Cytotoxicity Assays”. J. Immunol. Meth. 1983, 65, 55-63).
For data analysis, cell viability relative to control not treated with either H2O2 or the test compound, was plotted against the compound concentration. […] Cytotoxicity of the test compound was assessed in the absence of hydrogen peroxide.

A short description of data set [3]: Distribution coefficient determination, D7.4 (1-octanol / K2HPO4 buffer). The conditions noted are these: 1-octanol / K2HPO4 buffer 50 mM pH 7.4; for logD: read-out: Log D7.4. It is filed as physicochemical. The method, then:
K2HPO4 buffer (50 mM, pH=7.4) and 1-octanol were used as the aqueous phase and the organic phase, respectively. The K2HPO4 buffer and 1-octanol were mixed, and pre-saturated with each other before use.
In a typical experiment, an aqueous solution of Apo6995 (3-hydroxy-2-methyl-1-(2,2,2-trifluoroethyl)pyridin-4(1H)-one) was prepared by weighing out 3 mg of the compound into a 10-mL test-tube. It was then mixed with K2HPO4 buffer (2 mL) and sonicated for 30 minutes with frequent vortexing. The solution was then filtered through HPLC syringe filter (4 mm PVDF syringe filter 0.45 μM) to obtain the aqueous solution.
One mL of this aqueous solution was pipetted out into another 10-mL test-tube and mixed with 1 mL of 1-octanol. The mixture was then vortexed for 1 hour. The solution was centrifuged at 2000 rpm for 10 minutes. A small amount of the lower aqueous layer was carefully pipetted out and analyzed by HPLC to obtain the peak height (HF). The distribution coefficient, D7.4, was calculated using the following equation: D7.4=(HI−HF)/HF.

Data set [4] can be described thus: Oral cassette dosing PK/BBB studies. The conditions noted are these: oral cassette dosing; for Kp / AUC: rat; for Kp: brain and plasma, read-out: AUC brain/AUC plasma; for AUC: plasma. Format: in vivo, male Sprague-Dawley rats. As to the method: In-vivo pharmacokinetic (PK) and blood brain barrier (BBB) studies were conducted in male Sprague-Dawley rats using cassette dosing via oral administration. […] No. 15, pp. 652-658.

A short description of data set [5]: Pharmacokinetics following oral administration to rats. The conditions noted are these: rat, oral 50 mg/kg in 0.5% CMC; for Brain AUC_D_obs / Brain Cmax_D / Plasma AUC_D_obs / Plasma Cmax_D: dose-normalized. Format: in vivo, male Sprague Dawley rats. The method, then:
Adult male Sprague Dawley rats (275-325 g, Charles River Laboratories, Saint Constant, Quebec) were orally dosed with 50 mg/kg of test compound (Apo7323, Apo7433, Apo7435 or Apo7448) suspended in 0.5% carboxymethylcellulose (CMC) in water. For each test compound, samples were obtained from the plasma and brain of three animals per time point, at 0 (dosed with 0.5% CMC), 0.25, 0.5, 1, 2, 4, 8 and 12 h following administration. The concentration of the compound in rat plasma and brain samples was determined by HPLC-UV. Pharmacokinetic parameters were computed using the PKPlus Module in GastroPlus® ver. 8.0 (Simulations Plus Inc., Lancaster, Calif.). Calculation method: linear trapezoidal with linear interpolation.

A short description of data set [6]: Cyclic voltammetry of iron complexes. It is filed as physicochemical.
The conditions of data set [7]: background value; cited from earlier work.
Where [8] appears, read: male Sprague-Dawley rats, AUC normalized to 1 mg/kg dose.
Where [9] appears, read: 0.1M aqueous NaCl, pH 7.4, vs. Ag/AgCl.

Take `Cc1c(O)c(=O)ccn1CC(F)(F)F` [Apo6995, 3-hydroxy-2-methyl-1-(2,2,2-trifluoroethyl)pyridin-4(1H)-one]: in data set [1], the EC100 was determined as 20 µM, the minimal effective concentration is 0.1 µM, the “CC2 (cytotoxic concentration)” value was 80 µM and the “CC1 (cytotoxic concentration)” value is 80 µM. Moreover, in data set [2], the “CC2 (cytotoxic concentration)” value came to 320 µM and the “CC1 (cytotoxic concentration)” value was 320 µM. In addition, in data set [3], the D7.4 came to 2.51 and the logD was determined as 0.4. In data set [4] (setting [8]), the “AUC brain*” value came to 300 ng·h/mL and the AUC (usually concentration integrated over time) amounted to 260 ng·h/mL. Also, the Kp in data set [4] (male Sprague-Dawley rats) amounted to 1.2.

With `CCc1c(O)c(=O)ccn1CC(F)(F)F` [Apo7030, 2-ethyl-3-hydroxy-1-(2,2,2-trifluoroethyl)pyridin-4(1H)-one], in data set [1], the EC100 was found to be 20 µM, the minimal effective concentration turned out to be 1 µM, the “CC2 (cytotoxic concentration)” value came to 40 µM and the “CC1 (cytotoxic concentration)” value is 40 µM. In addition, in data set [2], the “CC2 (cytotoxic concentration)” value is more than 640 µM and the “CC1 (cytotoxic concentration)” value was found to be 640 µM. In addition, in data set [3], the D7.4 is recorded as 5.93 and the logD turned out to be 0.77. The “AUC brain* (cal.)” value in data set [4] (rats, normalized to 1 mg/kg, value marked (cal.)) was determined as 0.59 cal·µg·h/mL. Moreover, in data set [4] (male Sprague-Dawley rats), the Kp came out at 1. For the same compound, the AUC in data set [4] (setting [8]) amounted to 590 ng·h/mL.

As for `Cc1c(Cl)c(=O)c(O)c(CC(F)(F)F)n1C` [Apo7040, 3-chloro-5-hydroxy-1,2-dimethyl-6-(2,2,2-trifluoroethyl)pyridin-4(1H)-one], in data set [1], the EC100 came to 40 µM, the minimal effective concentration amounted to 1 µM, the “CC2 (cytotoxic concentration)” value came out at 80 µM and the “CC1 (cytotoxic concentration)” value amounted to 40 µM. In data set [2], the “CC2 (cytotoxic concentration)” value is more than 640 µM and the “CC1 (cytotoxic concentration)” value turned out to be 160 µM. Besides, in data set [3], the D7.4 stood at 8.76 and the logD is 0.94.

In the case of `CN(C)C(c1c(O)c(=O)c(Cl)cn1C)C(F)(F)F` (stereo not drawn) [Apo7060, 5-chloro-2-[1-(dimethylamino)-2,2,2-trifluoroethyl]-3-hydroxy-1-methylpyridin-4(1H)-one], in data set [1], the EC100 is 10 µM, the minimal effective concentration stood at 1 µM, the “CC2 (cytotoxic concentration)” value was found to be 20 µM and the “CC1 (cytotoxic concentration)” value came out at 40 µM. Further, in data set [2], the “CC2 (cytotoxic concentration)” value was more than 640 µM and the “CC1 (cytotoxic concentration)” value was 80 µM. In addition, in data set [3], the D7.4 came out at 4.93 and the logD was found to be 0.69.

Consider `Cn1cc(Cl)c(=O)c(O)c1CC(F)(F)F` [Apo7066, 5-chloro-3-hydroxy-1-methyl-2-(2,2,2-trifluoroethyl)pyridin-4(1H)-one], for which, in data set [1], the EC100 was determined as 10 µM, the minimal effective concentration is 0.1 µM, the “CC2 (cytotoxic concentration)” value stood at 80 µM and the “CC1 (cytotoxic concentration)” value was 80 µM. Moreover, in data set [2], the “CC2 (cytotoxic concentration)” value is 160 µM and the “CC1 (cytotoxic concentration)” value was 160 µM. In data set [3], the D7.4 is 4.69 and the logD is 0.67.

On to `Cc1c(O)c(=O)ccn1CC(F)F` [Apo7069, 1-(2,2-difluoroethyl)-3-hydroxy-2-methylpyridin-4(1H)-one], for which, in data set [1], the EC100 is 40 µM, the minimal effective concentration is 0.1 µM, the “CC2 (cytotoxic concentration)” value turned out to be 80 µM and the “CC1 (cytotoxic concentration)” value came to 80 µM. In data set [2], the “CC2 (cytotoxic concentration)” value is more than 640 µM and the “CC1 (cytotoxic concentration)” value came to 80 µM. In data set [3], the D7.4 was 0.66 and the “Log D7.4” value was −0.18.

On to `Cc1[nH]cc(C(N2CCOCC2)C(F)(F)F)c(=O)c1O` (stereo not drawn) [Apo7433, 3-hydroxy-2-methyl-5-(2,2,2-trifluoro-1-morpholinoethyl)pyridin-4(1H)-one], for which, in data set [1], the EC100 is 10 µM, the minimal effective concentration was 1 µM, the “CC2 (cytotoxic concentration)” value worked out at 40 µM and the “CC1 (cytotoxic concentration)” value was determined as 40 µM. Moreover, in data set [2], the “CC2 (cytotoxic concentration)” value was 320 µM and the “CC1 (cytotoxic concentration)” value came out at 320 µM. Also, in data set [5], the CL stood at 62.7 mL/min/kg, the “Brain AUC_D_obs” value worked out at 0.039 kg·µg·h/mL/mg, the “Brain Cmax_D” value was found to be 0.400 kg·µg/mL/mg and the “Plasma AUC_D_obs” value stood at 0.860 kg·µg·h/mL/mg. Further, in data set [5], the “Plasma Cmax_D” value was found to be 0.396 kg·µg/mL/mg.

For the compound `Cn1ccc(=O)c(O)c1C(N1CCOCC1)C(F)(F)F` (stereo not drawn) [Apo7448, 3-hydroxy-1-methyl-2-(2,2,2-trifluoro-1-morpholinoethyl)pyridin-4(1H)-one], in data set [1], the EC100 was 20 µM, the minimal effective concentration worked out at 1 µM, the “CC2 (cytotoxic concentration)” value is 40 µM and the “CC1 (cytotoxic concentration)” value came out at 40 µM. For the same compound, in data set [2], the “CC2 (cytotoxic concentration)” value was found to be 320 µM and the “CC1 (cytotoxic concentration)” value amounted to 80 µM. Besides, in data set [5], the CL worked out at 52 mL/min/kg, the “Brain AUC_D_obs” value came out at 0.486 kg·µg·h/mL/mg, the “Brain Cmax_D” value was found to be 0.178 kg·µg/mL/mg and the “Plasma AUC_D_obs” value turned out to be 1.07 kg·µg·h/mL/mg. Moreover, the “Plasma Cmax_D” value in data set [5] was found to be 0.334 kg·µg/mL/mg.

Consider `Cc1c([O-])c(=O)ccn1C.Cc1c([O-])c(=O)ccn1C.Cc1c([O-])c(=O)ccn1C.[Fe+3]` [Fe(L1)3], for which, in data set [6] (0.1M aqueous NaCl, pH 7.4), the “E1/2 vs. Ag/AgCl” value is given as −797 mV, the “E1/2 vs. NHE” value was −577 mV and the ΔE is given as 89 mV. In data set [6] (setting [9]), the Eox is reported as −752 mV and the Ered is −841 mV. Moreover, the “redox potential E1/2 (vs. NHE)” value in data set [6] (pH 7.4, as quoted) is −628 my.

As for “Fe-transferrin: iron bound to the blood protein transferrin”, in data set [7], the “E1/2 vs. Ag/AgCl” value is −720 my and the “E1/2 vs. NHE” value was −500 my.

Source of the values: US9938240B2, “Fluorinated derivatives of 3-hydroxypyridin-4-ones” (Apotex Technologies Inc., priority 2009, dated 2018).
